29 compounds from patent publication US9695180B2 (Incyte Corporation, priority 2014, dated 2017) can be followed below.

As a reminder, the IC50 is the concentration at which inhibition is half-maximal.

In one test the target is LSD-1 enzyme (Homo sapiens (Human), UniProt O60341). The test is described as follows: LANCE LSD1/KDM1A demethylase assay (LSD1 histone demethylase biochemical assay).
Details: not given
How it is done:
Example A: LSD1 Histone Demethylase Biochemical Assay
LANCE LSD1/KDM1A demethylase assay—10 μL of 1 nM LSD-1 enzyme (ENZO BML-SE544-0050) in the assay buffer (50 mM Tris, pH 7.5, 0.01% Tween-20, 25 mM NaCl, 5 mM DTT) were preincubated for 1 hour at 25° C. with 0.8 μL compound/DMSO dotted in black 384 well polystyrene plates. […] Reactions were stopped by addition of 10 μL 1× LANCE Detection Buffer (PerkinElmer CR97-100) supplemented with 1.5 nM Eu-anti-unmodified H3K4 Antibody (PerkinElmer TRF0404), and 225 nM LANCE Ultra Streptavidin (PerkinElmer TRF102) along with 0.9 mM Tranylcypromine-HCl (Millipore 616431). After stopping the reactions plates were incubated for 30 minutes and read on a PHERAstar FS plate reader (BMG Labtech).
As for `CN1CCC[C@@H](COc2nc(-c3ccc(C#N)cc3)c(-c3ccc(CO)cc3)n3ccnc23)C1` [Example 74, 4-(5-[4-(hydroxymethyl)phenyl]-8-{[(3R)-1-methylpiperidin-3-yl]methoxy}imidazo[1,2-a]pyrazin-6-yl)benzonitrile], the IC50 fell in the range of 0.05 to 0.5 µM. On the same count and under the same terms, under `C[C@H](O)c1nc2cc(-c3c(-c4ccc(C#N)cc4)nc(N4CCC(N(C)C)CC4)c4nccn34)ccc2n1C` [Example 114, 4-(8-[4-(dimethylamino)piperidin-1-yl]-5-{2-[(1S)-1-hydroxyethyl]-1-methyl-1H-benzimidazol-5-yl}imidazo[1,2-a]pyrazin-6-yl)benzonitrile] stands 0.05 to 0.5 µM. On the same count and under the same terms, under `CN(C)[C@H]1CCN(c2nc(-c3ccc(C#N)cc3)c(-c3ccc(N4CCCC4=O)nc3)n3ccnc23)C1` [Example 104, 4-{8-[(3S)-3-(dimethylamino)pyrrolidin-1-yl]-5-[6-(2-oxopyrrolidin-1-yl)pyridin-3-yl]imidazo[1,2-a]pyrazin-6-yl}benzonitrile] stands 0.05 to 0.5 µM; under `Cc1ccc(-c2c(-c3ccc(C#N)cc3)nc(NC3CCN(C)CC3)c3nccn23)cc1` [Example 17, 4-{5-(4-methylphenyl)-8-[(1-methylpiperidin-4-yl)amino]imidazo[1,2-a]pyrazin-6-yl}benzonitrile], 0.05 to 0.5 µM; under `Cc1ccc(-c2c(-c3ccc(C#N)cc3)nc(NCCc3csc(N)n3)c3nccn23)cc1` [Example 23, 4-[8-{[2-(2-amino-1,3-thiazol-4-yl)ethyl]amino}-5-(4-methylphenyl)imidazo[1,2-a]pyrazin-6-yl]benzonitrile], 0.05 to 0.5 µM. Same read-out and setting: under `CN1CCC[C@@H](COc2nc(-c3ccc(C#N)cc3)c(-c3ccc4scnc4c3)n3ccnc23)C1` [Example 55, 4-(5-(1,3-benzothiazol-5-yl)-8-{[(3R)-1-methylpiperidin-3-yl]methoxy}imidazo[1,2-a]pyrazin-6-yl)benzonitrile] stands 0.05 to 0.5 µM; under `Cc1ccc(-c2c(-c3ccc(C#N)cc3)nc(NCCC3CCCN3C)c3nccn23)cc1` (centres unmarked) [Example 16, 4-(5-(4-methylphenyl)-8-{[2-(1-methylpyrrolidin-2-yl)ethyl]amino}imidazo[1,2-a]pyrazin-6-yl)benzonitrile], 0.05 to 0.5 µM.

For `CN1CCC[C@@H](COc2nc(-c3ccc(C#N)cc3)c(-c3cnc4c(cnn4C)c3)n3ccnc23)C1` [Example 54, 4-[8-{[(3R)-1-methylpiperidin-3-yl]methoxy}-5-(1-methyl-1H-pyrazolo[3,4-b]pyridin-5-yl)imidazo[1,2-a]pyrazin-6-yl]benzonitrile], the IC50 was 0.05 to 0.5 µM. Same read-out and setting: the value for `CN1CC[C@@H](COc2nc(-c3ccc(C#N)cc3)c(-c3ccc(N(C)C)nc3)n3ccnc23)C1` [Example 32, 4-(5-[6-(dimethylamino)pyridin-3-yl]-8-{[(3R)-1-methylpyrrolidin-3-yl]methoxy}imidazo[1,2-a]pyrazin-6-yl)benzonitrile] was 0.05 to 0.5 µM. Same read-out and setting: under `CN(C)[C@H]1CCN(Cc2nc(-c3ccc(C#N)cc3)c(-c3ccc(N4CCCC4=O)nc3)n3ccnc23)C1` [Example 56, 4-{8-{[(3S)-3-(dimethylamino)pyrrolidin-1-yl]methyl}-5-[6-(2-oxopyrrolidin-1-yl)pyridin-3-yl]imidazo[1,2-a]pyrazin-6-yl}benzonitrile] stands 0.05 to 0.5 µM. `Cc1ccc(-c2c(-c3ccc(C#N)cc3)nc(OC[C@@H]3CCNC3)c3nc(C(F)(F)F)cn23)cc1` [Example 34, 4-[5-(4-methylphenyl)-8-[(3R)-pyrrolidin-3-ylmethoxy]-2-(trifluoromethyl)imidazo[1,2-a]pyrazin-6-yl]benzonitrile] returned an IC50 of 0.05 to 0.5 µM. `CN(C)c1ncc(-c2c(-c3ccc(C#N)cc3)nc(OC[C@@H]3CCNC3)c3nccn23)cn1` [Example 31, 4-{5-[2-(dimethylamino)pyrimidin-5-yl]-8-[(3R)-pyrrolidin-3-ylmethoxy]imidazo[1,2-a]pyrazin-6-yl}benzonitrile]: the IC50 lay within 0.05 to 0.5 µM. `Cc1ccc(-c2c(-c3ccc(C#N)cc3)nc(C(=O)NC3CN(C)C3)c3nccn23)cc1` [Example 25, 6-(4-cyanophenyl)-N-(1-methylazetidin-3-yl)-5-(4-methylphenyl)imidazo[1,2-a]pyrazine-8-carboxamide] came in with an IC50 of 0.05 to 0.5 µM.

As for `Cc1ccc(-c2c(-c3ccc(C#N)cc3)nc(OCCCN(C)C)c3nccn23)cc1` [Example 8, 4-[8-[3-(dimethylamino)propoxy]-5-(4-methylphenyl)imidazo[1,2-a]pyrazin-6-yl]benzonitrile], the IC50 was 0.05 to 0.5 µM.

Consider `Cc1ccc(-c2c(-c3ccc(C#N)cc3)nc(N(C)CCCN(C)C)c3nccn23)cc1` [Example 15, 4-[8-[[3-(dimethylamino)propyl](methyl)amino]-5-(4-methylphenyl)imidazo[1,2-a]pyrazin-6-yl]benzonitrile], for which the IC50 fell in the range of 0.05 to 0.5 µM. As for `CN1CCC[C@@H](COc2nc(-c3ccc(C#N)cc3)c(-c3ccc(CN4CCOCC4)cc3)n3ccnc23)C1` [Example 75, 4-{8-{[(3R)-1-methylpiperidin-3-yl]methoxy}-5-[4-(morpholin-4-ylmethyl)phenyl]imidazo[1,2-a]pyrazin-6-yl}benzonitrile], the 50% inhibitory concentration (IC50) fell in the range of 0.05 to 0.5 µM. Still for that read-out and setting: the value for `CN1CCC[C@@H](COc2nc(-c3ccc(C#N)cc3)c(-c3cc(F)c(CO)c(F)c3)n3ccnc23)C1` [Example 83, 4-(5-[3,5-difluoro-4-(hydroxymethyl)phenyl]-8-{[(3R)-1-methylpiperidin-3-yl]methoxy}imidazo[1,2-a]pyrazin-6-yl)benzonitrile] was 0.05 to 0.5 µM; that for `N#Cc1ccc(-c2nc(OC[C@@H]3CCNC3)c3nccn3c2-c2ccc(Cl)cc2)cc1` [Example 27, 4-{5-(4-chlorophenyl)-8-[(3R)-pyrrolidin-3-ylmethoxy]imidazo[1,2-a]pyrazin-6-yl}benzonitrile] was 0.05 to 0.5 µM.

In turn, `Cc1ccc(-c2c(-c3ccc(C#N)cc3)nc(OC[C@@H]3CCCN(C)C3)c3nccn23)cc1CN1CCN(S(C)(=O)=O)CC1` [Example 71, 4-(5-(4-methyl-3-{[4-(methylsulfonyl)piperazin-1-yl]methyl}phenyl)-8-{[(3R)-1-methylpiperidin-3-yl]methoxy}imidazo[1,2-a]pyrazin-6-yl)benzonitrile] yielded an IC50 of 0.05 to 0.5 µM.

Turning to `Cc1ccc(-c2c(-c3ccc(C#N)cc3)nc(CCN3CC[C@@H](N(C)C)C3)c3nccn23)cc1` [Example 6, 4-[8-{2-[(3R)-3-(dimethylamino)pyrrolidin-1-yl]ethyl}-5-(4-methylphenyl)imidazo[1,2-a]pyrazin-6-yl]benzonitrile], the IC50 lay within 0.5 to 1 µM. Regarding `CN1CCC[C@@H](COc2nc(-c3ccc(C#N)cc3)c(-c3ccc4c(c3)OCCO4)n3ccnc23)C1` [Example 50, 4-(5-(2,3-dihydro-1,4-benzodioxin-6-yl)-8-{[(3R)-1-methylpiperidin-3-yl]methoxy}imidazo[1,2-a]pyrazin-6-yl)benzonitrile], the IC50 was in the range of 0.05 to 0.5 µM.

With `Cc1ccc(-c2c(-c3ccc(C#N)cc3)nc(N(C)C(=O)N3CC[C@H](N(C)C)C3)c3nccn23)cc1` [Example 22, (3S)—N-[6-(4-cyanophenyl)-5-(4-methylphenyl)imidazo[1,2-a]pyrazin-8-yl]-3-(dimethylamino)-N-methylpyrrolidine-1-carboxamide], the IC50 fell in the range of 0.5 to 1 µM. `CN1CCC[C@@H](COc2nc(-c3ccc(C#N)cc3)c(-c3ccc(N4CCCC4=O)nc3)n3ccnc23)C1` [Example 48, 4-{8-{[(3R)-1-methylpiperidin-3-yl]methoxy}-5-[6-(2-oxopyrrolidin-1-yl)pyridin-3-yl]imidazo[1,2-a]pyrazin-6-yl}benzonitrile] displayed an IC50 of 0.05 to 0.5 µM. Same read-out and setting: the value for `CN1C(=O)CCc2ccc(-c3c(-c4ccc(C#N)cc4)nc(N4CCC(N(C)C)CC4)c4nccn34)cc21` [Example 108, 4-[8-[4-(dimethylamino)piperidin-1-yl]-5-(1-methyl-2-oxo-1,2,3,4-tetrahydroquinolin-7-yl)imidazo[1,2-a]pyrazin-6-yl]benzonitrile] was 0.05 to 0.5 µM; that for `Cc1ccc(-c2c(-c3ccc(C#N)cc3)nc(N(C)C(=O)N3CC[C@@H](N(C)C)C3)c3nccn23)cc1` [Example 21, (3R)—N-[6-(4-cyanophenyl)-5-(4-methylphenyl)imidazo[1,2-a]pyrazin-8-yl]-3-(dimethylamino)-N-methylpyrrolidine-1-carboxamide] was 0.05 to 0.5 µM; that for `Cc1ccc(-c2c(-c3ccc(C#N)cc3)nc(C(=O)NCC3CNC3)c3nccn23)cc1` [Example 24, N-(azetidin-3-ylmethyl)-6-(4-cyanophenyl)-5-(4-methylphenyl)imidazo[1,2-a]pyrazine-8-carboxamide] was 0.05 to 0.5 µM.

The compound `Cc1ncc(-c2c(-c3ccc(C#N)cc3)nc(OC[C@@H]3CCCN(C)C3)c3nccn23)cc1C#N` [Example 117, 5-(6-(4-cyanophenyl)-8-{[(3R)-1-methylpiperidin-3-yl]methoxy}imidazo[1,2-a]pyrazin-5-yl)-2-methylnicotinonitrile] returned an IC50 of 0.05 to 0.5 µM.

The test is the same for the next values; noted with them: 1 nM LSD-1 enzyme, 1 hour preincubation at 25° C., Biotin-labeled Histone H3 peptide substrate; read-out: IC50.
On to `CN1CCC[C@@H](COc2nc(-c3ccc(C#N)cc3)c(-c3ccc4c(c3)CC(O)C4)n3ccnc23)C1` (single isomer, unassigned) [78 (peak 1)], for which the IC50 was < 0.05 µM. In the case of `CN1CCC[C@@H](COc2nc(-c3ccc(C#N)cc3)c(-c3ccc4c(c3)CC(O)C4)n3ccnc23)C1` (single isomer, unassigned) [78 (peak 2)], the IC50 is < 0.05 µM.
